Some test systems named below: CCRF-CEM leukemia; DU-145 prostate; LOX IMVI melanoma; NCI-H460 lung; RXF 393 renal; SF-268 CNS; SF-295 CNS; SK-MEL-28 melanoma; SK-OV-3 ovarian; TK-10 renal.
Experiment in all cases: DTP human tumour cell line panel, 48 h

Several values for one entry are separate records, joined by “and”; a condition that tells them apart may be missing. Equal entries are not always repeated.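 Values below derive from 48-hour exposures of cells grown in 96-well plates, with endpoints linearly interpolated between the two concentrations bracketing the appropriate inhibition level. The concentration for 50% growth inhibition is given as GI50. At the TGI there is no net growth.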

For the molecule `C[C@@H]1CC[C@@]2(OC1)O[C@H]1C[C@H]3[C@@H]4CC=C5C[C@@H](O[C@@H]6O[C@H](CO)[C@@H](O[C@@H]7O[C@@H](CO)[C@H](O)[C@H]7O)[C@H](O)[C@H]6O[C@@H]6O[C@@H](C)[C@H](O)[C@@H](O)[C@H]6O)CC[C@]5(C)[C@H]4CC[C@]3(C)[C@H]1[C@@H]2C`, the GI50 in the test on CCRF-CEM leukemia is 1.1 µM; in the test on DU-145 prostate, 1.17 µM; in the test with LOX IMVI melanoma, 0.332 µM; with NCI-H460 lung it was 0.928 µM; with RXF 393 renal, 0.388 µM; in the test on SF-268 CNS, 1.21 µM. The values for the GI50 in the test on SF-295 CNS, in the test on SK-MEL-28 melanoma and with SK-OV-3 ovarian were 1.71 µM, 1.2 µM and 1.62 µM, respectively. For the same molecule, the TGI worked out at 2.6 µM in the test on CCRF-CEM leukemia; 2.4 µM in the test with DU-145 prostate; 1.19 µM in the test on LOX IMVI melanoma; 2.29 µM with NCI-H460 lung; 1.58 µM in the test on RXF 393 renal; 2.47 µM in the test on SF-268 CNS. The TGI with SF-295 CNS turned out to be 3.11 µM; in the test on SK-MEL-28 melanoma, 2.44 µM; in the test with SK-OV-3 ovarian, 3.04 µM; in the test on TK-10 renal, 2.19 µM.

As for `COc1ccc(/C=C(\C#N)c2cc3ccccc3n2C)cc1`, the GI50 with CCRF-CEM leukemia was 0.338 µM; with DU-145 prostate, 0.502 µM; with LOX IMVI melanoma, 0.577 µM; with NCI-H460 lung it was 0.389 µM; in the test with RXF 393 renal it was 0.244 µM; in the test on SF-268 CNS, 2.52 µM. The GI50 with SF-295 CNS is 0.355 µM; in the test on SK-MEL-28 melanoma it was 4.52 µM; with SK-OV-3 ovarian, 0.787 µM; in the test on TK-10 renal, 4.51 µM. Besides, the TGI with CCRF-CEM leukemia was more than 100 µM; in the test with DU-145 prostate, more than 100 µM; with LOX IMVI melanoma it was more than 100 µM; in the test with NCI-H460 lung, 37.9 µM; with RXF 393 renal, 0.834 µM; with SF-268 CNS, more than 100 µM. In addition, the TGI is more than 28.2 µM in the test with SF-295 CNS, more than 100 µM with SK-MEL-28 melanoma, more than 100 µM in the test on SK-OV-3 ovarian and more than 100 µM in the test with TK-10 renal.

Regarding `Oc1ccc2ccccc2c1N=Nc1ccccc1`, the TGI in the test with CCRF-CEM leukemia, in the test with DU-145 prostate, in the test on LOX IMVI melanoma, in the test on NCI-H460 lung, in the test with RXF 393 renal and in the test on SF-268 CNS was more than 100 µM each time. Further, the total growth inhibition concentration (TGI) in the test with SF-295 CNS, with SK-MEL-28 melanoma, with SK-OV-3 ovarian and with TK-10 renal was more than 100 µM throughout. Moreover, the GI50 in the test on SF-268 CNS was 25 µM and > 63.8 µM; in the test on SF-295 CNS, 39.6 µM and > 90.3 µM.

On to `C#Cc1ccc(NC(=O)c2ccc(/C=C/C(=O)c3nccn3C)cc2)cc1`, for which the GI50 is 0.486 µM in the test on CCRF-CEM leukemia; 0.597 µM in the test on DU-145 prostate; 0.365 µM with LOX IMVI melanoma; 0.586 µM in the test on NCI-H460 lung; 0.408 µM with RXF 393 renal; 0.76 µM in the test with SF-268 CNS. Also, the GI50 is 0.537 µM in the test with SF-295 CNS, 0.521 µM with SK-MEL-28 melanoma, 0.979 µM in the test with SK-OV-3 ovarian and 0.905 µM with TK-10 renal. The TGI in the test with CCRF-CEM leukemia is 1.59 µM; with DU-145 prostate, 1.57 µM; in the test on LOX IMVI melanoma, 0.711 µM; in the test with NCI-H460 lung, 1.64 µM; in the test with RXF 393 renal it was 0.796 µM; in the test on SF-268 CNS it was 4.5 µM. The TGI in the test on SF-295 CNS was 1.25 µM; with SK-MEL-28 melanoma, 1.24 µM; in the test with SK-OV-3 ovarian, 24.3 µM; in the test with TK-10 renal, 4.66 µM.

With `CC#CC(=O)N1CCC[C@H]1c1nc(-c2ccc(C(=O)Nc3ccccn3)cc2)c2c(N)nccn12`, the GI50 in the test with CCRF-CEM leukemia was more than 82.1 µM; in the test with DU-145 prostate it was 71 µM; in the test on LOX IMVI melanoma, 98.5 µM; in the test on NCI-H460 lung it was 89.5 µM; in the test with RXF 393 renal, 61.7 µM; in the test on SF-268 CNS, 52.7 µM. The GI50 is more than 86.1 µM in the test on SF-295 CNS, 47.3 µM with SK-MEL-28 melanoma, 2.25 µM in the test on SK-OV-3 ovarian and 21.1 µM with TK-10 renal. Moreover, the TGI in the test with CCRF-CEM leukemia, with DU-145 prostate, in the test with LOX IMVI melanoma, with NCI-H460 lung, in the test on RXF 393 renal and with SF-268 CNS was more than 100 µM each time. For the same molecule, the total growth inhibition concentration (TGI) in the test on SF-295 CNS, in the test with SK-MEL-28 melanoma, in the test with SK-OV-3 ovarian and in the test with TK-10 renal was more than 100 µM throughout.

For `Cc1nc(NC(=O)N2CCC[C@H]2C(N)=O)sc1-c1ccnc(C(C)(C)C(F)(F)F)c1`, the GI50 in the test with CCRF-CEM leukemia was 5.13 µM and 5.71 µM; with DU-145 prostate, 4.84 µM and 9.16 µM; in the test with LOX IMVI melanoma it was 3.36 µM and 2.58 µM; in the test on NCI-H460 lung, 1.36 µM and 2.02 µM; in the test on RXF 393 renal, 2.78 µM and 3.45 µM; in the test on SF-268 CNS it was 9.71 µM and 9.76 µM. The GI50 with SF-295 CNS is 2.79 µM and 4.1 µM; in the test on SK-MEL-28 melanoma, 4.72 µM and 6.71 µM; with SK-OV-3 ovarian it was 0.134 µM and 0.262 µM; in the test on TK-10 renal, 1.2 µM and 0.789 µM. The TGI with CCRF-CEM leukemia is 75.4 µM and > 10 µM; with DU-145 prostate it was more than 73.1 µM; with LOX IMVI melanoma, 22 µM and > 10 µM; in the test with NCI-H460 lung it was more than 100 µM; in the test on RXF 393 renal, 17.3 µM and > 10 µM; in the test on SF-268 CNS, more than 86.5 µM. Besides, the concentration for total growth inhibition (TGI) is 16 µM and > 10 µM in the test with SF-295 CNS; more than 61.6 µM with SK-MEL-28 melanoma; 5.98 µM and 6.37 µM with SK-OV-3 ovarian; 15.8 µM and > 10 µM in the test on TK-10 renal.

In the case of `NC(CSC(c1ccccc1)(c1ccccc1)c1ccc2ccccc2c1)C(=O)O` (stereo unspecified), the GI50 was 0.0372 µM in the test on CCRF-CEM leukemia; 0.0986 µM in the test with DU-145 prostate; 0.172 µM with LOX IMVI melanoma; 0.0485 µM in the test on NCI-H460 lung; 0.0572 µM in the test on RXF 393 renal; 0.0517 µM in the test on SF-268 CNS. The GI50 in the test with SF-295 CNS is 0.0246 µM; in the test with SK-MEL-28 melanoma it was 0.38 µM; with SK-OV-3 ovarian it was 0.0806 µM; in the test with TK-10 renal it was 0.524 µM. Also, the TGI is more than 39.4 µM with CCRF-CEM leukemia; 0.333 µM with DU-145 prostate; 18.1 µM in the test with LOX IMVI melanoma; 12.1 µM with NCI-H460 lung; 21.5 µM in the test with RXF 393 renal; 13.7 µM with SF-268 CNS. Besides, the TGI with SF-295 CNS was determined as 2.64 µM; with SK-MEL-28 melanoma, 16 µM; in the test on SK-OV-3 ovarian, 29.6 µM; in the test with TK-10 renal, 23.6 µM.

Take `O=[As](O)(O)c1ccc(Cc2ccc([As](=O)(O)O)cc2)cc1`: the TGI in the test on CCRF-CEM leukemia is 1.05 µM; in the test with DU-145 prostate it was 1.17 µM; with LOX IMVI melanoma it was 1.41 µM; in the test with NCI-H460 lung, 2.43 µM; in the test on RXF 393 renal, 1.53 µM; in the test with SF-268 CNS it was 1.85 µM. The TGI in the test on SF-295 CNS amounted to 8.46 µM; with SK-MEL-28 melanoma, 2.92 µM; in the test on SK-OV-3 ovarian it was 6.19 µM; in the test on TK-10 renal, 1.27 µM.

As to `Oc1ccccc1-n1c(-c2ccccc2)ccc1-c1ccccc1`, the GI50 in the test with CCRF-CEM leukemia was 4.77 µM; with DU-145 prostate it was 7 µM; in the test on LOX IMVI melanoma, 6.1 µM; in the test on NCI-H460 lung, 4.35 µM; in the test with RXF 393 renal, 7.93 µM; with SF-268 CNS it was 10.5 µM. Moreover, the GI50 with SF-295 CNS was 6.6 µM; in the test on SK-MEL-28 melanoma it was 10.8 µM; with SK-OV-3 ovarian, 8.93 µM; in the test on TK-10 renal it was 11.1 µM. Besides, the TGI in the test with CCRF-CEM leukemia amounted to 71.1 µM; in the test on DU-145 prostate, 19.7 µM; in the test with LOX IMVI melanoma, 20.5 µM; with NCI-H460 lung, 17.7 µM; with RXF 393 renal, 23 µM; with SF-268 CNS, 24.8 µM. In addition, the concentration for total growth inhibition (TGI) with SF-295 CNS is 21 µM; in the test on SK-MEL-28 melanoma, 31.6 µM; in the test with SK-OV-3 ovarian, more than 100 µM; in the test with TK-10 renal it was 24.1 µM.

With `CC1(C)OCN(c2ccc(Cl)cc2)Cn2c1nc1ccccc12`, the total growth inhibition concentration (TGI) with CCRF-CEM leukemia, in the test with DU-145 prostate, in the test with LOX IMVI melanoma, in the test on NCI-H460 lung, in the test with RXF 393 renal and in the test on SF-268 CNS was more than 100 µM in each case. The TGI in the test on SF-295 CNS, in the test on SK-MEL-28 melanoma, with SK-OV-3 ovarian and in the test with TK-10 renal was more than 100 µM in each case.

For `CC(=O)Oc1cccc2c1C(=O)c1c(OC(C)=O)cc(C)cc1C2=O`, the TGI with CCRF-CEM leukemia, with DU-145 prostate, in the test on LOX IMVI melanoma, in the test with NCI-H460 lung, with RXF 393 renal and in the test with SF-268 CNS was more than 100 µM each time. For the same molecule, the TGI in the test with SF-295 CNS, in the test on SK-MEL-28 melanoma, in the test on SK-OV-3 ovarian and with TK-10 renal was more than 100 µM in each case.

In the case of `COc1ccc2c3c(c(OCCCN(C)C)nc2c1)-c1ccc(Cl)cc1C3=O`, the GI50 in the test on CCRF-CEM leukemia was 7.89 µM; with DU-145 prostate, 6.08 µM; in the test with LOX IMVI melanoma it was 4.58 µM; in the test on NCI-H460 lung, 2.26 µM; with RXF 393 renal, 7.24 µM; in the test on SF-268 CNS, 6.42 µM. Moreover, the GI50 was 10.6 µM with SF-295 CNS, 12.1 µM with SK-MEL-28 melanoma, 12.2 µM in the test with SK-OV-3 ovarian and 5.39 µM with TK-10 renal. Besides, the TGI in the test on CCRF-CEM leukemia amounted to 66 µM; with DU-145 prostate, 19.1 µM; with LOX IMVI melanoma, 19.4 µM; in the test on NCI-H460 lung, 10.2 µM; in the test on RXF 393 renal, 20.1 µM; in the test on SF-268 CNS, 21.8 µM. In addition, the TGI was determined as 23.8 µM in the test with SF-295 CNS, 27 µM in the test on SK-MEL-28 melanoma, 26.7 µM in the test on SK-OV-3 ovarian and 15.3 µM with TK-10 renal.

`CC(C)C(N)(C(=O)O)c1ccccc1` (stereo unspecified): the TGI with CCRF-CEM leukemia, with DU-145 prostate, in the test on LOX IMVI melanoma, in the test with NCI-H460 lung, in the test on RXF 393 renal and with SF-268 CNS was more than 100 µM in each case. Moreover, the TGI in the test on SF-295 CNS, in the test with SK-MEL-28 melanoma, with SK-OV-3 ovarian and in the test with TK-10 renal was more than 100 µM in each case.

The values are drawn from PubChem BioAssay (NCI).
